The values that follow come from PubChem BioAssay AID624458 (Sanford-Burnham Center for Chemical Genomics, 2012).

Structures are written as SMILES. Where “and” joins values, the source holds several entries; their conditions need not be identical. Identical values can stand only once. Calls of active or inactive are those of the source.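 How the source made its calls: active means mean IC50 of at most 10 µM; inactive means the rest.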

This assay concerns H9c2 cardiomyoblasts, H2O2 injury protection, ATPLite luminescence, 2 h. Kind of assay: protection of cardiomyoblasts from H2O2 death, SAR follow-up, H9c2 cells, set 2 (AID 624458).
On to `COc1cccc(CNC(=O)c2cc(-c3ccc(OC)c(OC)c3)nc3ccccc23)c1`, for which the half-inhibitory concentration (IC50) was 5.82 µM.

Regarding `COc1ccc(-c2cc(C(=O)Nc3cccc(C(C)=O)c3)c3ccccc3n2)cc1OC`, the IC50 was 8.37 µM.

For `COc1cccc(N2C(=O)c3ccccc3N3C(=O)c4ccccc4C23)c1` (centres undefined), the IC50 was 40.5 µM (inactive).

For `COc1ccc2c(c1OC)C(=O)N1c3ccccc3C(=O)N(c3cccc(Cl)c3)C21` (centres undefined), the IC50 is 12.1 µM (inactive).

Consider `COc1ccc2c(c1OC)C(=O)N1c3ccccc3C(=O)N(c3ccccc3)C21` (centres undefined), for which the IC50 is 11 µM (inactive).

`COc1cccc(-c2cc(C(=O)Nc3cccc(C(C)=O)c3)c3ccccc3n2)c1`: the IC50 was 6.74 µM.

`COc1ccc2c(c1OC)C(=O)N1c3ccccc3C(=O)N(c3ccc(C)cc3)C21` (centres undefined): the IC50 is 0.959 µM.

Regarding `COc1ccc2c(c1OC)C(=O)N1c3ccccc3C(=O)N(Cc3cccc(Cl)c3)C21` (centres undefined), the IC50 was 2.96 µM.

On to `O=C1c2ccccc2N2C(=O)c3ccccc3C2N1c1ccccc1` (centres undefined), for which the IC50 was 61.1 µM (inactive).

Regarding `COc1ccc(N2C(=O)c3ccccc3N3C(=O)c4c(ccc(OC)c4OC)C23)cc1` (centres undefined), the IC50 was 12.8 µM (inactive).

As for `COc1ccc2c(c1OC)C(=O)N1c3ccccc3C(=O)N(c3cccc(C(F)(F)F)c3)C21` (centres undefined), the IC50 is 13.8 µM (inactive).

For `COc1ccc2c(c1OC)C(=O)N1c3ccccc3C(=O)N(c3ccc(C(C)(C)C)cc3)C21` (centres undefined), the IC50 is 5.55 µM.

For `COc1ccc(NC(=O)c2cc(-c3cc(OC)c(OC)c(OC)c3)nc3ccccc23)cc1`, the IC50 is 7.41 µM.

Consider `COc1ccc2c(c1OC)C(=O)N1c3ccccc3C(=O)N(c3cccc(Br)c3)C21` (centres undefined), for which the IC50 was 1.75 µM and 12.5 µM (inactive).

As to `COc1cccc(N2C(=O)c3ccccc3N3C(=O)c4c(ccc(OC)c4OC)C23)c1` (centres undefined), the IC50 is 6.89 µM.

Turning to `COc1cc(-c2cc(C(=O)Nc3cccc(C(C)=O)c3)c3cc(Cl)ccc3n2)cc(OC)c1OC`, the IC50 was 6.13 µM.

In the case of `CCN(CC(=O)Nc1ccc(OC)cc1)C(=O)c1cc(-c2cc(OC)c(OC)c(OC)c2)nc2ccccc12`, the IC50 was 3.89 µM.

For the molecule `COc1cc(-c2cc(C(=O)Nc3cccc(C(C)=O)c3)c3ccccc3n2)cc(OC)c1OC`, the IC50 is 1.41 µM and 4.26 µM.

For `COc1cc(-c2cc(C(=O)Nc3cccc(F)c3)c3ccccc3n2)cc(OC)c1OC`, the IC50 is 10.6 µM (inactive).

In the case of `COc1ccc2c(c1OC)C(=O)N1c3ccccc3C(=O)N(c3ccc(Br)cc3)C21` (centres undefined), the IC50 is 1.97 µM.

Regarding `COc1cc(-c2cc(C(=O)Nc3cccc(Cl)c3)c3ccccc3n2)cc(OC)c1OC`, the IC50 was 58.4 µM (inactive).

With `COc1cccc(NC(=O)c2cc(-c3cc(OC)c(OC)c(OC)c3)nc3ccccc23)c1`, the IC50 is 8.18 µM.

On to `COc1ccc2c(c1OC)C(=O)N1c3ccccc3C(=O)N(c3cccc(F)c3)C21` (centres undefined), for which the IC50 was 6.91 µM.

`COc1cc(-c2cc(C(=O)Nc3ccccc3)c3ccccc3n2)cc(OC)c1OC`: the IC50 is 10.1 µM (inactive).

In the case of `COc1cccc(CNC(=O)c2cc(-c3cc(OC)c(OC)c(OC)c3)nc3ccccc23)c1`, the IC50 is 4.8 µM.

Take `COc1ccc(-c2cc(C(=O)Nc3cccc(C(C)=O)c3)c3ccccc3n2)cc1`: the IC50 was 5.6 µM.

For the molecule `COc1cc(-c2cc(C(=O)Nc3cccc(C(F)(F)F)c3)c3ccccc3n2)cc(OC)c1OC`, the IC50 was 75.3 µM (inactive).

As for `CC(=O)c1cccc(NC(=O)c2cc(-c3ccccc3)nc3ccccc23)c1`, the IC50 was 7.04 µM.

For `CCOC(=O)c1cccc(NC(=O)c2cc(-c3cc(OC)c(OC)c(OC)c3)nc3ccccc23)c1`, the IC50 was 3.06 µM.

Regarding `COc1ccc2c(c1OC)C(=O)N1c3ccccc3C(=O)N(Cc3ccccc3Cl)C21` (centres undefined), the IC50 was 1.2 µM.

In the case of `COc1cc(-c2cc(C(=O)Nc3cccc(C)c3)c3ccccc3n2)cc(OC)c1OC`, the IC50 was 18.8 µM (inactive).

In the case of `COc1cc(-c2cc(C(=O)Nc3ccc(C(C)=O)cc3)c3ccccc3n2)cc(OC)c1OC`, the IC50 was 3.53 µM.

With `O=C1c2ccccc2N2C(=O)c3ccccc3C2N1c1cccc(Br)c1` (centres undefined), the IC50 was > 79 µM (inactive).

Turning to `COc1ccc2c(c1OC)C(=O)N1c3ccccc3C(=O)N(c3cccc(C)c3)C21` (centres undefined), the IC50 was 17.8 µM (inactive).
